Data reported in ChEMBL document CHEMBL1201861, “Genomics of Drug Sensitity in Cancer screening data, Wellcome Trust Sanger Institute”.

system: SK-N-FI; test: cells; assay type: functional, cell-based, Homo sapiens; settings: Homo sapiens, SK-N-FI;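 further: cell viability assay measuring growth inhibition of human SK-N-FI cells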
Description: SANGER: Inhibition of human SK-N-FI cell growth in a cell viability assay.

SMILES	IC50 [nM]
CCN(CC)CCCCNc1ncc2cc(-c3cc(OC)cc(OC)c3)c(NC(=O)NC(C)(C)C)nc2n1 [PD-173074]	> 2000

system: COLO-824; test: cells; assay type: functional, cell-based, Homo sapiens; settings: Homo sapiens, COLO-824
Description: SANGER: Inhibition of human COLO-824 cell growth in a cell viability assay.

SMILES	IC50 [nM]
CCN(CC)CCCCNc1ncc2cc(-c3cc(OC)cc(OC)c3)c(NC(=O)NC(C)(C)C)nc2n1 [PD-173074]	> 2000

system: NEC8; test: cells; assay type: functional, cell-based, Homo sapiens; settings: Homo sapiens, NEC8;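 further: growth inhibition of human NEC8 cells, read out by a cell viability assay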
Description: SANGER: Inhibition of human NEC8 cell growth in a cell viability assay.

SMILES	IC50 [nM]
CCN(CC)CCCCNc1ncc2cc(-c3cc(OC)cc(OC)c3)c(NC(=O)NC(C)(C)C)nc2n1 [PD-173074]	563

system: SW 962; test: cells; assay type: functional, cell-based, Homo sapiens; settings: Homo sapiens, SW 962;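 further: growth inhibition of human SW962 cells, read out by a cell viability assay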
Description: SANGER: Inhibition of human SW962 cell growth in a cell viability assay.

SMILES	IC50 [nM]
CCN(CC)CCCCNc1ncc2cc(-c3cc(OC)cc(OC)c3)c(NC(=O)NC(C)(C)C)nc2n1 [PD-173074]	790

system: IA-LM; test: cells; assay type: functional, cell-based, Homo sapiens; settings: Homo sapiens, IA-LM;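 further: cell viability assay measuring growth inhibition of human IA-LM cells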
Description: SANGER: Inhibition of human IA-LM cell growth in a cell viability assay.

SMILES	IC50 [nM]
CCN(CC)CCCCNc1ncc2cc(-c3cc(OC)cc(OC)c3)c(NC(=O)NC(C)(C)C)nc2n1 [PD-173074]	> 2000

system: BB65-RCC; test: cells; assay type: functional, cell-based, Homo sapiens; settings: Homo sapiens, BB65-RCC;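 further: growth inhibition of the cell line, measured with a cell viability assay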
Description: SANGER: Inhibition of human BB65-RCC cell growth in a cell viability assay.

SMILES	IC50 [nM]
CCN(CC)CCCCNc1ncc2cc(-c3cc(OC)cc(OC)c3)c(NC(=O)NC(C)(C)C)nc2n1 [PD-173074]	> 2000

system: NCI-H720; test: cells; assay type: functional, cell-based, Homo sapiens; settings: Homo sapiens, NCI-H720;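 further: growth inhibition of human NCI-H720 cells determined by a cell viability assay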
Description: SANGER: Inhibition of human NCI-H720 cell growth in a cell viability assay.

SMILES	IC50 [nM]
CCN(CC)CCCCNc1ncc2cc(-c3cc(OC)cc(OC)c3)c(NC(=O)NC(C)(C)C)nc2n1 [PD-173074]	> 2000

system: MOLT-16; test: cells; assay type: functional, cell-based, Homo sapiens; settings: Homo sapiens, MOLT-16;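 further: growth inhibition of human MOLT-16 cells, read out with a cell viability assay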
Description: SANGER: Inhibition of human MOLT-16 cell growth in a cell viability assay.

SMILES	IC50 [nM]
CCN(CC)CCCCNc1ncc2cc(-c3cc(OC)cc(OC)c3)c(NC(=O)NC(C)(C)C)nc2n1 [PD-173074]	> 2000

system: GOTO; test: cells; assay type: functional, cell-based, Homo sapiens; settings: Homo sapiens, GOTO;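 further: growth inhibition of GOTO cells, read out by a cell viability assay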
Description: SANGER: Inhibition of human GOTO cell growth in a cell viability assay.

SMILES	IC50 [nM]
CCN(CC)CCCCNc1ncc2cc(-c3cc(OC)cc(OC)c3)c(NC(=O)NC(C)(C)C)nc2n1 [PD-173074]	> 2000

system: BE-13; test: cells; assay type: functional, cell-based, Homo sapiens; settings: Homo sapiens, BE-13;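 further: growth inhibition of human BE-13 cells, measured with a cell viability assay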
Description: SANGER: Inhibition of human BE-13 cell growth in a cell viability assay.

SMILES	IC50 [nM]
CCN(CC)CCCCNc1ncc2cc(-c3cc(OC)cc(OC)c3)c(NC(=O)NC(C)(C)C)nc2n1 [PD-173074]	> 2000

system: D283 Med; test: cells; assay type: functional, cell-based, Homo sapiens; settings: Homo sapiens, D283 Med
Description: SANGER: Inhibition of human D-283MED cell growth in a cell viability assay.

SMILES	IC50 [nM]
CCN(CC)CCCCNc1ncc2cc(-c3cc(OC)cc(OC)c3)c(NC(=O)NC(C)(C)C)nc2n1 [PD-173074]	> 2000

system: J-RT3-T3-5; test: cells; assay type: functional, cell-based, Homo sapiens; settings: Homo sapiens, J-RT3-T3-5;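 further: cell viability assay measuring growth inhibition of human J-RT3-T3-5 cells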
Description: SANGER: Inhibition of human J-RT3-T3-5 cell growth in a cell viability assay.

SMILES	IC50 [nM]
CCN(CC)CCCCNc1ncc2cc(-c3cc(OC)cc(OC)c3)c(NC(=O)NC(C)(C)C)nc2n1 [PD-173074]	> 2000

system: KP-N-YS; test: cells; assay type: functional, cell-based, Homo sapiens; settings: Homo sapiens, KP-N-YS;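 further: cell viability assay measuring inhibition of cell line growth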
Description: SANGER: Inhibition of human KP-N-YS cell growth in a cell viability assay.

SMILES	IC50 [nM]
CCN(CC)CCCCNc1ncc2cc(-c3cc(OC)cc(OC)c3)c(NC(=O)NC(C)(C)C)nc2n1 [PD-173074]	> 2000

system: L-428; test: cells; assay type: functional, cell-based, Homo sapiens; settings: Homo sapiens, L-428
Description: SANGER: Inhibition of human L-428 cell growth in a cell viability assay.

SMILES	IC50 [nM]
CCN(CC)CCCCNc1ncc2cc(-c3cc(OC)cc(OC)c3)c(NC(=O)NC(C)(C)C)nc2n1 [PD-173074]	> 2000

system: LS-1034; test: cells; assay type: functional, cell-based, Homo sapiens; settings: Homo sapiens, LS-1034
Description: SANGER: Inhibition of human LS-1034 cell growth in a cell viability assay.

SMILES	IC50 [nM]
CCN(CC)CCCCNc1ncc2cc(-c3cc(OC)cc(OC)c3)c(NC(=O)NC(C)(C)C)nc2n1 [PD-173074]	> 2000

system: 8-MG-BA; test: cells; assay type: functional, cell-based, Homo sapiens; settings: Homo sapiens, 8-MG-BA;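 further: growth inhibition of 8-MG-BA cells, read out with a cell viability assay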
Description: SANGER: Inhibition of human 8-MG-BA cell growth in a cell viability assay.

SMILES	IC50 [nM]
CCN(CC)CCCCNc1ncc2cc(-c3cc(OC)cc(OC)c3)c(NC(=O)NC(C)(C)C)nc2n1 [PD-173074]	> 2000

system: IST-MEL1; test: cells; assay type: functional, cell-based, Homo sapiens; settings: Homo sapiens, IST-MEL1;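 further: growth inhibition of the cell line, read out with a cell viability assay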
Description: SANGER: Inhibition of human IST-MEL1 cell growth in a cell viability assay.

SMILES	IC50 [nM]
CCN(CC)CCCCNc1ncc2cc(-c3cc(OC)cc(OC)c3)c(NC(=O)NC(C)(C)C)nc2n1 [PD-173074]	> 2000

system: NCI-H1299; test: cells; assay type: functional, cell-based, Homo sapiens; settings: Homo sapiens, NCI-H1299;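 further: growth inhibition of human NCI-H1299 cells, read out by a cell viability assay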
Description: SANGER: Inhibition of human NCI-H1299 cell growth in a cell viability assay.

SMILES	IC50 [nM]
CCN(CC)CCCCNc1ncc2cc(-c3cc(OC)cc(OC)c3)c(NC(=O)NC(C)(C)C)nc2n1 [PD-173074]	> 2000

system: BB30-HNC; test: cells; assay type: functional, cell-based, Homo sapiens; settings: Homo sapiens, BB30-HNC;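 further: growth inhibition of the cultured cell line, read out by a cell viability assay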
Description: SANGER: Inhibition of human BB30-HNC cell growth in a cell viability assay.

SMILES	IC50 [nM]
CCN(CC)CCCCNc1ncc2cc(-c3cc(OC)cc(OC)c3)c(NC(=O)NC(C)(C)C)nc2n1 [PD-173074]	> 2000

system: NCI-H1395; test: cells; assay type: functional, cell-based, Homo sapiens; settings: Homo sapiens, NCI-H1395;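 further: cell viability assay read-out quantifying reduced proliferation of human NCI-H1395 cells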
Description: SANGER: Inhibition of human NCI-H1395 cell growth in a cell viability assay.

SMILES	IC50 [nM]
CCN(CC)CCCCNc1ncc2cc(-c3cc(OC)cc(OC)c3)c(NC(=O)NC(C)(C)C)nc2n1 [PD-173074]	> 2000

system: TE-11; test: cells; assay type: functional, cell-based, Homo sapiens; settings: Homo sapiens, TE-11;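 further: growth inhibition of human TE-11 cells, read out by a cell viability assay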
Description: SANGER: Inhibition of human TE-11 cell growth in a cell viability assay.

SMILES	IC50 [nM]
CCN(CC)CCCCNc1ncc2cc(-c3cc(OC)cc(OC)c3)c(NC(=O)NC(C)(C)C)nc2n1 [PD-173074]	> 2000

system: NB6; test: cells; assay type: functional, cell-based, Homo sapiens; settings: Homo sapiens, NB6;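 further: growth inhibition of NB6 cells, read out by a cell viability assay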
Description: SANGER: Inhibition of human NB6 cell growth in a cell viability assay.

SMILES	IC50 [nM]
CCN(CC)CCCCNc1ncc2cc(-c3cc(OC)cc(OC)c3)c(NC(=O)NC(C)(C)C)nc2n1 [PD-173074]	> 2000

system: TE-5; test: cells; assay type: functional, cell-based, Homo sapiens; settings: Homo sapiens, TE-5;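 further: inhibition of cell growth, read out by a cell viability assay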
Description: SANGER: Inhibition of human TE-5 cell growth in a cell viability assay.

SMILES	IC50 [nM]
CCN(CC)CCCCNc1ncc2cc(-c3cc(OC)cc(OC)c3)c(NC(=O)NC(C)(C)C)nc2n1 [PD-173074]	> 2000
